Test results as given in ChEMBL document CHEMBL5465560, “Selectivity Literature for EUbOPEN Chemogenomic Library” (2024).

Key:
[1] = biological target: Serine/threonine-protein kinase Nek7 (Homo sapiens) (UniProt Q8TDX7); test: Selectivity interaction (KinomeScan (DiscoverX)) EUB0000229b NEK7; settings: at 10 µM
[2] = biological target: RAC-alpha serine/threonine-protein kinase (Homo sapiens, UniProt P31749); test: Selectivity interaction (Rxn Biology Kinase assay) EUB0001632a AKT1; settings: at 10 µM
RAC-alpha serine/threonine-protein kinase, sequence (P31749 whole entry): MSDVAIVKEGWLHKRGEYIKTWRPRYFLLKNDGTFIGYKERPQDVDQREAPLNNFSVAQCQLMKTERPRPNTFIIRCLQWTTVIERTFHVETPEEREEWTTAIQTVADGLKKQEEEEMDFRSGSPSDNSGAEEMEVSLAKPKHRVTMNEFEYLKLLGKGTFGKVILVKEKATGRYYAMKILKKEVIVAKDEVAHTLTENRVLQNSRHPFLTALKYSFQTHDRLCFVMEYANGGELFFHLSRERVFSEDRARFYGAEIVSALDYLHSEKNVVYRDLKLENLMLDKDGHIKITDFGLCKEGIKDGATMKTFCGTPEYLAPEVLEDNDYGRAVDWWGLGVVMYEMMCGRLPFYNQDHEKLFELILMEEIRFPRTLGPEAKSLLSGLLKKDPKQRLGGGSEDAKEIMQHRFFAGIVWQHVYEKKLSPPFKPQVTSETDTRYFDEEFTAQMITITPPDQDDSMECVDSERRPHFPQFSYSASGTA

[3] = biological target: T1, Serine/threonine-protein kinase LATS1 (Homo sapiens) (UniProt O95835); test: Selectivity interaction (LanthaScreen Eu Kinase Binding Assay) EUB0001632a LATS1; settings: at 10 µM
T1 sequence (whole entry): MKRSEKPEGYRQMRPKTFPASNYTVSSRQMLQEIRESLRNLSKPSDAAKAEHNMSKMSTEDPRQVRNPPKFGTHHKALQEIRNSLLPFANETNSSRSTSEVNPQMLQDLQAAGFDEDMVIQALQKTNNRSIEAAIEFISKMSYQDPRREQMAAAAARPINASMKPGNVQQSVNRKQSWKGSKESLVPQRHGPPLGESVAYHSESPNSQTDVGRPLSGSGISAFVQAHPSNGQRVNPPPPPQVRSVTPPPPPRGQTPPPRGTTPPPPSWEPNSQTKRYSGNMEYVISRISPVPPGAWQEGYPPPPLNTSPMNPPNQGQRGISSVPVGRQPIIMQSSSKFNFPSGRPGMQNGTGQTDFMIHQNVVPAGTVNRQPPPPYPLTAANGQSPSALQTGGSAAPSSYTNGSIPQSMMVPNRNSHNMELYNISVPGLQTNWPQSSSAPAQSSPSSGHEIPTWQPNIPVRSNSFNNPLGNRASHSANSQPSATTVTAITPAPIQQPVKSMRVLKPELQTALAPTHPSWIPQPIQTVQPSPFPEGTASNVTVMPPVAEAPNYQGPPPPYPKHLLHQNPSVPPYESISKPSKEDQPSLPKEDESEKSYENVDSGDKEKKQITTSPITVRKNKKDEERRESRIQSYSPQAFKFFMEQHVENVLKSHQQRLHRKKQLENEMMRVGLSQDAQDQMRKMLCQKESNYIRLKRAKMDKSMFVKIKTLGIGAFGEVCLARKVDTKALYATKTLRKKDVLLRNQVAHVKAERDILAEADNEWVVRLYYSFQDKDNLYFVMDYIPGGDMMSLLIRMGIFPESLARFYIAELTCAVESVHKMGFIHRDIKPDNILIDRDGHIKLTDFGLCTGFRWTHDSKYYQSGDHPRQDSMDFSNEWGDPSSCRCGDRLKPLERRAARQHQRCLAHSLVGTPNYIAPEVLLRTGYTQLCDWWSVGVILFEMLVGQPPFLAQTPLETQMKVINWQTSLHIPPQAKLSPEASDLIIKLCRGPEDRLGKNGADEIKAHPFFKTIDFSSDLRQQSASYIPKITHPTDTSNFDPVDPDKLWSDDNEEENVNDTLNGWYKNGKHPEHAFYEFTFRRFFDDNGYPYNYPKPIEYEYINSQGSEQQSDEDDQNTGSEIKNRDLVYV

[4] = biological target: Histone-lysine N-methyltransferase SETDB1 (Homo sapiens) (UniProt Q15047); test: Selectivity interaction (Methyltransferase screen (radiometric assays, panel of 8 PRMTs, 21 protein lysine methyltransferases, 3 DNA methyltransferases, and one RNA methyltransferase)) EUB0000272b SETDB1
[5] = biological target: T2, Mitogen-activated protein kinase 13 (Homo sapiens) (UniProt O15264); settings: at 10 µM
T2 sequence (whole entry): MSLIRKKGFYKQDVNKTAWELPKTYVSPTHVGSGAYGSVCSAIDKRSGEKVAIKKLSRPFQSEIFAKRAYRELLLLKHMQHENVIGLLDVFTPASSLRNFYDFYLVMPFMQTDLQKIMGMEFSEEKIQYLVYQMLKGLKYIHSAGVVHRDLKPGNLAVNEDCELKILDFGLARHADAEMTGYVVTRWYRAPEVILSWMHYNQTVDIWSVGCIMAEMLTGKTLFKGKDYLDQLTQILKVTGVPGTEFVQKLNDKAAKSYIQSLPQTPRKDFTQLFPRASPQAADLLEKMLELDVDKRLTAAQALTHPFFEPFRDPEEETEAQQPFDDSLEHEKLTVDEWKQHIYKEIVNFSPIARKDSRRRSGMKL

[6] = biological target: PAS domain-containing serine/threonine-protein kinase (Homo sapiens) (UniProt Q96RG2); test: Selectivity interaction (SelectScreen profiling (Invitrogen)) EUB0000607a PASK; settings: at 2 µM
PAS domain-containing serine/threonine-protein kinase (Homo sapiens), sequence (Q96RG2 whole entry, the tested form may be a part): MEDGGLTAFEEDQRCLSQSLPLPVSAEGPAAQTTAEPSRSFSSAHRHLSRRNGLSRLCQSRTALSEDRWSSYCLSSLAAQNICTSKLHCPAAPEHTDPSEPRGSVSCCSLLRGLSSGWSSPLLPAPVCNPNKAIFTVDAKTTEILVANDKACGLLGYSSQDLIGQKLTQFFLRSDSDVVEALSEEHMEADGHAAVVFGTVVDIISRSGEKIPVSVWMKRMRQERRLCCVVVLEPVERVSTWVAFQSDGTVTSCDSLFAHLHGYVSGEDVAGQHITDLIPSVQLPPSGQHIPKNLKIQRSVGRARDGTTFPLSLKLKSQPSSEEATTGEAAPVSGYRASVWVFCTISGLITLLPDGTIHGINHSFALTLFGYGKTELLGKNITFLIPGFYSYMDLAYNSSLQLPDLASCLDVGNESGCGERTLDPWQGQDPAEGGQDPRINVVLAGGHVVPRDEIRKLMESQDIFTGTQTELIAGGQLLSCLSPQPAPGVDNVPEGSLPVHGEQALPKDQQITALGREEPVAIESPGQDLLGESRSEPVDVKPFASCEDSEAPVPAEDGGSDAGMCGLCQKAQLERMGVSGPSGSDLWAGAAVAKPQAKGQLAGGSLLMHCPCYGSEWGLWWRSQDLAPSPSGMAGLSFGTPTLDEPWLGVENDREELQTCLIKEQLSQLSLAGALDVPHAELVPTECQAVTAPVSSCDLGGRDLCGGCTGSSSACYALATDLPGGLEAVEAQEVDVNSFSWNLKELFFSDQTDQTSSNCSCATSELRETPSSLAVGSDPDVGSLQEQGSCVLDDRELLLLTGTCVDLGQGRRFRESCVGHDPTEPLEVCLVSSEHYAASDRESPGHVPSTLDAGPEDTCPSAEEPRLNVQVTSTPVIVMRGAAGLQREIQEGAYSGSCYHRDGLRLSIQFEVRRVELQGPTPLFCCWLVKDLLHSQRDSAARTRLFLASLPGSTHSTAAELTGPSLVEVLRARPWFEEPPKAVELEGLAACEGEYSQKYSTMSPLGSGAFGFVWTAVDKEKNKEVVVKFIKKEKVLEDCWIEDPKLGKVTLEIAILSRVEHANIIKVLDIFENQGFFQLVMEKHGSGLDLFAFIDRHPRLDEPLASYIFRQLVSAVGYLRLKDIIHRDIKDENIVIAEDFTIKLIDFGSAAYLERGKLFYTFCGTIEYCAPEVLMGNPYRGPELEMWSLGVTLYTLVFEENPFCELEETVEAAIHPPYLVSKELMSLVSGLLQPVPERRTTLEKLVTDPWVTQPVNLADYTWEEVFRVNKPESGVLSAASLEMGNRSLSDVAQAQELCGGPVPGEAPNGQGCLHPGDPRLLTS

[7] = biological target: Cyclin-dependent kinase 9 (Homo sapiens, UniProt P50750); test: Selectivity interaction (Kinase panel (Invitrogen)) EUB0000639a CDK9; settings: at 200 nM
Cyclin-dependent kinase 9, sequence (P50750 whole entry): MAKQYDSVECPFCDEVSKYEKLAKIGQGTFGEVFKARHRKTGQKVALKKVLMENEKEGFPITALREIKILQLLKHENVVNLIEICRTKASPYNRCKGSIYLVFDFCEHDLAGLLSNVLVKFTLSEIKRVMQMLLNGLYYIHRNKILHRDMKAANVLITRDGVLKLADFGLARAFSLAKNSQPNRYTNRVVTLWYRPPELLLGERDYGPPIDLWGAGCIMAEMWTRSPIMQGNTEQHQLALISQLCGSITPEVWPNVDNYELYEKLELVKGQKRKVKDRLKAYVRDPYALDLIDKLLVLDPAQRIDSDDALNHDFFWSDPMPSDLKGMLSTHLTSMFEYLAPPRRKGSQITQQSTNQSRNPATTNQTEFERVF

[8] = biological target: T3, MAP/microtubule affinity-regulating kinase 4 (Homo sapiens) (UniProt Q96L34); test: Selectivity interaction (ActivX KiNativ screen (kinase selectivity in THP-1 cell lysates)) EUB0000639a MARK4; assay type: subcellular; settings: lysate, at 1 µM
T3 sequence (whole entry): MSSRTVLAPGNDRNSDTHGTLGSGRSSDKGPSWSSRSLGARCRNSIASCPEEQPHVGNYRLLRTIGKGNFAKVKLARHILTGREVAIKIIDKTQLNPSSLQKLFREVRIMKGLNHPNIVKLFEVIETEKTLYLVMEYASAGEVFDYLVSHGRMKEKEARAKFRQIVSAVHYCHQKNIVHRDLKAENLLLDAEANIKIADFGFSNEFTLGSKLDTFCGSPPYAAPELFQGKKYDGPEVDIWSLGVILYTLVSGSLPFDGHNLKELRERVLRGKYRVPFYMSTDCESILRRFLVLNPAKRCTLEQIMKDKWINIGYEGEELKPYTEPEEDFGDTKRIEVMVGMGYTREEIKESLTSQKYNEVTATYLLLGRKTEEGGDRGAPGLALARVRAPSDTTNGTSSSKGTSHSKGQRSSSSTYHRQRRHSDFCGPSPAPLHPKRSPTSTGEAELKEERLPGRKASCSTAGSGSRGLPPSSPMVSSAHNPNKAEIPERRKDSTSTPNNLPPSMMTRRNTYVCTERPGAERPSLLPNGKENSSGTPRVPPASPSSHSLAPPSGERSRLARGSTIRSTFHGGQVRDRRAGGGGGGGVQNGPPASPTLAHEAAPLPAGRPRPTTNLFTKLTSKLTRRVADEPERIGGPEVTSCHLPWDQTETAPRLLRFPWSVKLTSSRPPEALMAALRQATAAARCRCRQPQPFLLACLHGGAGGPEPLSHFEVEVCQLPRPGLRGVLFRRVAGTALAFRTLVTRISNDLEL

[9] = biological target: Interferon-induced, double-stranded RNA-activated protein kinase (Homo sapiens) (UniProt P19525); test: Selectivity interaction (ActivX KiNativ screen (kinase selectivity in THP-1 cell lysates)) EUB0000639a EIF2AK2; assay type: subcellular; settings: lysate, at 5 µM
Interferon-induced, double-stranded RNA-activated protein kinase (Homo sapiens), sequence (P19525 whole entry): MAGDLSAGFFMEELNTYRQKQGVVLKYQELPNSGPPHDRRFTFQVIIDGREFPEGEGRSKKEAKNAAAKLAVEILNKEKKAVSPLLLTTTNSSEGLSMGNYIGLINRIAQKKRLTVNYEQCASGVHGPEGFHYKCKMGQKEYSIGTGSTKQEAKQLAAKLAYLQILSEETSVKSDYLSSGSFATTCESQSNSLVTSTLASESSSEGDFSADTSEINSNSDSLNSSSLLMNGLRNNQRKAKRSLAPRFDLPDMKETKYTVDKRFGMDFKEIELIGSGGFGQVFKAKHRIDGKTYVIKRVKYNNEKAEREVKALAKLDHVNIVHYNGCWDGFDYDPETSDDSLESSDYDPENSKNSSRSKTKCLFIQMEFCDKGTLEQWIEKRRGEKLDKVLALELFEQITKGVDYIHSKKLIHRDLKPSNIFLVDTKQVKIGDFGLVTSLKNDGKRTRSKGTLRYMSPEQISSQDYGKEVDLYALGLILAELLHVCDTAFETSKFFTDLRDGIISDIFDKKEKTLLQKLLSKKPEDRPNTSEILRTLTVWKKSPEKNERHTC

[10] = biological target: 5'-AMP-activated protein kinase catalytic subunit alpha-2 (Homo sapiens) (UniProt P54646); test: Selectivity interaction (Ambit KINOMEscan and KiNATiv profiling in Jurkat cells) EUB0000090b PRKAA2; assay type: cell-based; settings: at 1 µM
5'-AMP-activated protein kinase catalytic subunit alpha-2 (Homo sapiens), sequence (P54646 whole entry, looked up): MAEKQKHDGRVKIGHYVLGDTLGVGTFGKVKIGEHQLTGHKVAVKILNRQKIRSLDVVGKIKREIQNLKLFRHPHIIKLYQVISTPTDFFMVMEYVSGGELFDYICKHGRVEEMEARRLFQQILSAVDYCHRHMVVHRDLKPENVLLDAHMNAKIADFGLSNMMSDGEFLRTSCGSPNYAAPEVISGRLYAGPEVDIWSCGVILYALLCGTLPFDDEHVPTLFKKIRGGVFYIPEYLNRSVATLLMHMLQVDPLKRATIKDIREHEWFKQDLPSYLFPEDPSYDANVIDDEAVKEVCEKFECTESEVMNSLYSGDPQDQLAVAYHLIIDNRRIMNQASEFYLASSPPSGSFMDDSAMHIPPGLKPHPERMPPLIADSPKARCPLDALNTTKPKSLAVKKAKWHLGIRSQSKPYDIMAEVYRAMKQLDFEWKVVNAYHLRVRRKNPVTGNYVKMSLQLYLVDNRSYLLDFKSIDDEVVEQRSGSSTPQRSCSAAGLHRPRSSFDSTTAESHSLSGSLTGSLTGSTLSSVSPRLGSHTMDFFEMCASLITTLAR

Serine/threonine-protein kinase Nek7 (Homo sapiens), sequence (Q8TDX7 whole entry, looked up): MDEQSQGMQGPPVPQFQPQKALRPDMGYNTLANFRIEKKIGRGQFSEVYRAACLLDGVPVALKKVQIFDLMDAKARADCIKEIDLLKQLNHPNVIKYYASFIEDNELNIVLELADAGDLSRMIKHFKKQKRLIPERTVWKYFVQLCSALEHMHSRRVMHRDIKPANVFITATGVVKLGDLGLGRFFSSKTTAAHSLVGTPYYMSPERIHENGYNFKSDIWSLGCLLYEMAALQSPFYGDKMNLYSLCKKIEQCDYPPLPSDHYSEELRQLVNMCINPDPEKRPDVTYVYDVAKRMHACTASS

Question: For `COc1cc(N(C)c2ccnc3ccc(C(F)(F)F)cc23)cc(OC)c1OC`, which % binding [1] is on record?
Answer: The % binding was 100%.

Question: For `Cn1cc(-n2cnc3c(NCc4nc5cc(Cl)c(Cl)cc5[nH]4)nc(N4CCOCC4)nc32)cn1`, which % of inhibition [2] is on record?
Answer: The % of inhibition was 0.245%.

Question: What about the % of inhibition [3] of the same molecule?
Answer: The % of inhibition was -63.1%.

Question: What does the source list for `Cc1cc(C)cc([C@H]2c3cc(C)ccc3NC(=O)CN2C(=O)c2ccc(Br)s2)c1`?
Answer: % of activity ([4]; at 1 µM): 103%; % of activity ([4]; at 10 µM): 104%

Question: How did the % of control [5] turn out when `Cc1cc([C@@H](C)Nc2ccccc2C(=O)O)c2nc(N3CCOCC3)cc(=O)n2c1` [AZD-6482] was run?
Answer: Its % of control is 87%.

Question: With `CNC(=O)Nc1ccc(-c2nc(N3CC4CCC(C3)O4)c3cnn(C4CCC5(CC4)OCCO5)c3n2)cc1` as the molecule, how does the % of inhibition [6] read?
Answer: The % of inhibition was 3%.

Question: For `CC[C@@H]1[C@H](F)C(=O)N[C@@H]1COc1nccc2cc(C(N)=O)c(OC)cc12` [ZIMLOVISERTIB], which % of inhibition [7] is on record?
Answer: The % of inhibition was 4.37%.

Question: And the % of inhibition [8]?
Answer: The % of inhibition was 17.1%.

Question: And the % of inhibition [9]?
Answer: Its % of inhibition is 0.6%.

Question: For `CN(C)C/C=C/C(=O)Nc1ccc(C(=O)N2CCCC(Nc3ncc(Cl)c(-c4c[nH]c5ccccc45)n3)C2)cc1` (stereo unspecified), which % of control [10] is on record?
Answer: The % of control was 98%.
